Non-standard residues stand in square brackets, D forms with d. Residues, ends and D or L forms follow the SMILES beside them.

Data set [1] relates to CSNK2A1 mRNA. As to the kind of experiment: qPCR of CSNK2A1 mRNA in OVCAR3 cells. The settings on record: maximum; ratio and cell line not stated at the place. In kind it is cell-based. The protocol: (§1) qRT-PCR. Cells were seeded at 50,000 cells per well and treated with siRNA targeting CSNK2A1 (siCSNK2A1 #s3638, Thermo Fisher Scientific) at increasing N:P ratios and incubated for a total of 48 hours in McCoys 5A/DMEM-10% FBS. Treated cells were washed with 1×PBS at 24 hours and fresh media was added. RNAisolation was completed using a Qiagen Mini-RNeasy Kit (Qiagen, Hilden, Germany) according to the manufacturer's protocol. RNA isolation quality and quantity were measured through the Gen5 protocol using a Take3 plate (BioTek). RNA was reverse-transcribed using the QuantiTect Reverse Transcription kit (Qiagen). Quantitative real-time PCR was completed with a QuantStudio 3 qPCR system (Applied Biosystems) using Applied Biosystems TaqMan FAST Master Mix (Thermo Fisher) and CSNK2A1 (ID #Hs00751002_s1) and 18S (ID #Hs99999901_s1) predesigned TaqMan probes, according to the manufacturer's protocol.
Gene and Protein Knockdown. Bioactivity of siRNAs was determined via qPCR and western blot analysis. OVCAR3 or CAOV3 cells were seeded at 50,000 cells per well as previously described and treated with siRNA targeting CSNK2A1 and siNT at N:P ratios 30:1, 40:1, 50:1, 60:1, and 70:1. LHRH-DIV3W peptide complexed with either siNT or siCSNK2A1 was incubated for a total of 48 hours in RPMI 1640/DMEM-10% FBS, with one media exchange occurring after the 24-hour timepoint. Treated cells were washed with 1×PBS at 24 hours and fresh media was added. RNA isolation was completed using a Qiagen Mini-RNeasy Kit (Qiagen, Hilden, Germany) according to the manufacturer's protocol. RNA isolation quality and quantity was measured through the Gen5 protocol using a Take3 plate (BioTek). RNA was reverse transcribed using the QuantiTect Reverse Transcription kit (Qiagen) according to the manufacturer's protocol. Quantitative real-time PCR was completed with a QuantStudio 3 qPCR system (Applied Biosystems, Waltham, MA) using Applied Biosystems TaqMan FAST Master Mix (Thermo Fisher) and CSNK2A1 (ID #Hs00751002_s1) and 18S (ID #Hs99999901_s1) predesigned TaqMan probes according to the manufacturer's protocol.
For orientation: In qPCR the cycle at which signal appears reflects the starting amount.

For data set [2], the system named is CSNK2A1 mRNA. As to the kind of experiment: qPCR of CSNK2A1 mRNA in CAOV3 cells. It counts as cell-based. The settings on record: CAOV3, 48 hours, 80:1. The protocol: as §1
Data set [3] can be described thus: dynamic light scattering, size and zeta potential of peptide/siRNA complexes. In kind it is physicochemical. The protocol:
Dynamic Light Scattering and Transmission Electron Microscopy. DIV3 (X)-siNT complexes were prepared at 2 mg/mL in RNase-free water. Hydrodynamic size and surface charge of the peptide/siRNA complexes were determined using a Nano ZS Zetasizer (Malvern Pananalytical, Malvern, UK). All data were recorded using Malvern's Zetasizer software.
To determine nanoparticle size and zeta potential, peptides resuspended in RNase-free water (10 μM) were thawed and kept on ice prior to complexation with 10 μM of siNT in RNase-free water and incubated for 20 minutes at room temperature to form DIV3W-siNT and LHRH-DIV3W-siNT complexes. Peptide complexes were prepared at 2 mg/mL in RNase-free water. Hydrodynamic size and surface charge analysis was conducted using a Malvern Nano ZS Zetasizer (Malvern Panalytical, Malvern, UK). All data was analyzed using Malvern's Zetasizer software.

Data set [4] relates to MCF10a breast epithelial cells. Nature of the data set: MTS cell viability assay, healthy cells. It counts as cell-based. As to conditions: 48 h (FIG. 25: DIV3W-siNT complexes). (In general: Tetrazolium dyes change colour on reduction, which living cells bring about.)
In the next data set the test system is OVCAR3 cells. As to the kind of experiment: cellular uptake of labeled siRNA by flow cytometry. It counts as cell-based. As to conditions: for uptake efficiency: OVCAR3, siNT-DY547, 4 hours. The protocol: Cellular Uptake. OVCAR3 and CAOV3 cells were prepared at 50,000 cells per well in a 24-well plate. […] Post-incubation, media was aspirated and cells were washed with 1× PBS. To counterstain the nuclei, SuperSignal NucBlue Hoechst stain (Thermo Fisher, Waltham, MA) was added to the cells for 30 minutes, followed by an additional 1×PBS wash. Subsequent imaging was performed using an EVOS FL Microscope (Thermo Fisher) at 10× magnification. For flow cytometric analysis, cells were detached, resuspended in 1× PBS, and analyzed using an Attune NXT Acoustic flow cytometer (Invitrogen, Carlsbad, CA) with the blue laser line and BL2 (574/26 nm) channel.
Cellular Uptake and Targeting Specificity. Observation of cell uptake was performed by seeding OVCAR3 and CAOV3 cells at a density of 50,000 cells per well in a 24-well plate. LHRH and LHRH-DIV3W peptides were complexed with […] as previously described and delivered to cells at 20:1 to 80:1 N:P ratios. Each cell line was incubated with tandem peptide complexes for both 4- and 24-hour treatment periods. Following incubation, cell media was removed, and cells were washed with 1× PBS prior to the addition of 500 μL of 1×PBS and SuperSignal NucBlue Hoescht 33342 nuclear stain (Thermo Fisher, Waltham, MA). Cellular imaging was completed using an EVOS FL Microscope (Thermo Fisher) at 10×, 20×, and 40× magnification. Flow cytometry was completed after cell imaging and cells were trypsinized, resuspended in 1×PBS, and analyzed with an Attune NXT Acoustic Flow Cytometer (Invitrogen) with the red laser line and RL2 […] channel.

For another data set, the system named is RNase A. As to the kind of experiment: gel assay of siRNA protection from RNase A degradation. In kind it is in vitro ADME. As to conditions: 1 hour, several N:P ratios. The protocol:
Gel Shift Assays. DIVA3, DIV3H, and DIV3W (all three denoted as DIV3 (X)) peptides suspended in RNase-free water (10 μM), were thawed, and kept on ice prior to complexation with 10 μM of negative control siGENOME non-targeting siRNA #5 (siNT, GE Healthcare Dharmacon, Lafayette, CO) in RNase-free water and incubated for 20 minutes at room temperature to allow the formation of DIV3 (X)-siNT complexes. Various molar ratios of peptides were complexed with siNT at increasing N:P molar ratios to determine the minimum molar ratio necessary to completely complex free siRNAs using an electrophoretic mobility shift assay. To determine the ability of each peptide variant to protect siRNAs from degradation, DIV3 (X)-siNT complexes or siNT alone was left untreated or incubated with either 50% v/v FBS or 5 μg/mL RNase A at 37° C. for one hour. Next, complexes were dissociated using 6% sodium dodecyl sulfate (SDS). Samples were added to a 2% agarose gel and run at 100 V. Gels were stained with ethidium bromide, destained with Milli-Q water, and imaged using a ChemiDoc XRS imager (Bio-Rad, Hercules, CA).
Characterization of Nanoparticle Size and Stability. To determine the minimum molar ratio necessary to completely complex free siRNAs, increasing N:P molar ratios of LHRH, DIV3W, and LHRH-DIV3W peptide were complexed with siRNAs and electrophoresed using a electrophoretic mobility shift assay. Molar ratios, shown as N:P, are representations of the molar amine peptide content in relation to 1 mole of phosphate group siRNA content. To determine the ability of the peptides to protect siRNAs from serum- or RNase-mediated degradation, LHRH and LHRH-DIV3W complexes were formed in RNase-free water with siNT at increasing N:P molar ratios and incubated at 37° C., 5% CO2, 50% v/v FBS, 5 μg/mL RNase A, or 50% v/v RNase free water for 1 hour. Peptide/siRNA complexes were dissociated using 6% sodium dodecyl sulfate (SDS) prior to electrophoresis in a 2% agarose gel run at 100 V. Gels were stained with ethidium bromide, washed with Milli-Q water, and imaged with a BioRad ChemiDoc XRS imager (BioRad, Hercules, CA).
Peptides VA-LD and GF-LD, comprising the cleavable linker VA or GLFG, respectively, between the LHRH target sequence and the DIV3W peptide, and non targeting siRNA were electrostatically complexed at increasing N:P ratios then subjected to agarose gel electrophoresis to determine optimal siRNA binding for each peptide. […] Peptide-siRNA nanocomplexes at increasing N:P ratios for peptides for VA-LD (FIG. 30A) and GF-LD (FIG. 30C) were incubated in either Rnase A enzyme or in 50% fetal bovine serum (FBS) for 1 h, dissociated using SDS then subjected to gel electrophoresis to visualize siRNA bands. Gels showing increasing N:P ratios of peptide:siRNA for VA-LD (FIG. 30B) and GF-LD (FIG. 30D) from 20:1 to 80:1 N:P; white bands are indicative of intact siRNA

Consider `CC[C@H](C)[C@H](NC(=O)[C@H](CC(=O)O)NC(=O)[C@H](C)NC(=O)[C@@H](NC(=O)[C@@H](NC(=O)[C@H](CC(=O)O)NC(=O)[C@H](Cc1c[nH]c2ccccc12)NC(=O)[C@@H](NC(=O)[C@@H](NC(=O)[C@H](CC(=O)O)NC(=O)[C@H](C)NC(=O)[C@@H](NC(=O)[C@@H](NC(=O)[C@H](CC(=O)O)NC(=O)[C@H](C)NC(=O)[C@H](CCC(=O)O)NC(=O)[C@@H](N)Cc1c[nH]c2ccccc12)[C@@H](C)CC)C(C)C)[C@@H](C)CC)C(C)C)[C@@H](C)CC)C(C)C)C(=O)N[C@H](C(=O)N[C@@H](C)C(=O)NCC(=O)NCC(=O)NCC(=O)N[C@H](CCCNC(=N)N)C(=O)N[C@H](CCCNC(=N)N)C(=O)N[C@H](CCCNC(=N)N)C(=O)N[C@H](CCCNC(=N)N)C(=O)N[C@H](CCCNC(=N)N)C(=O)N[C@H](CCCNC(=N)N)C(=O)N[C@H](CCCNC(=N)N)C(=O)N[C@H](CCCNC(=N)N)C(=O)N[C@H](CCCNC(=N)N)C(=O)O)C(C)C` [DIV3W] (H-WEADIVADIVWDIVADIVAGGG[dR][dR][dR][dR][dR][dR][dR][dR][dR]-OH), for which the mRNA reduction result in the data set on CSNK2A1 mRNA [1] was “up to 94%”. For the same compound, the “CSNK2A1 mRNA knockdown, maximum” value with CSNK2A1 mRNA [2] turned out to be 80%. Also, the hydrodynamic diameter entry in data set [3] (DIV3 (X) peptide/siRNA complex at 60:1 ratio) is reported as “around 100 nm”. The zeta potential in data set [3] (DIV3 (X) peptide/siRNA complexes) is given as ~30 mV. Besides, in data set [4], the “cytotoxicity in healthy cells” value is recorded as “no cytotoxic effects were observed”. Moreover, the siRNA internalization efficiency result in the data set on OVCAR3 cells (OVCAR3, at each N:P ratio) is given as “approximately 65%”. The uptake efficiency in the data set with OVCAR3 cells (40:1) is given as 70.0%; with OVCAR3 cells (60:1), 69.7%; with OVCAR3 cells (80:1), 66.6%. In addition, the “intact siRNA after incubation with RNase A” value in the data set with RNase A is on record as “Minimal degradation”.

These data come from US20250177548A1, “FUSOGENIC PEPTIDE COMPOSITIONS AND METHODS OF CARGO DELIVERY” (CLEMSON UNIVERSITY, priority 2022, published 2025).
